A short description of this data set: Metabolite analysis of arterial plasma (unmetabolized parent fraction), column-switching HPLC. The format is in vivo, rhesus monkeys (Macaca mulatta). The conditions noted are these: mean ± SD. Here is the method:
Arterial blood samples were collected for each scan to measure the input function. Metabolite analysis was performed using an automatic column-switching high-performance liquid chromatography system ([22]) for 7 arterial blood samples collected at 5, 15, 30, 60, 90, 120, and 180 min. The radiometabolite-corrected arterial plasma input function was obtained by calculating the product of the fitted total plasma (fitted with a sum of exponentials) and unmetabolized parent fraction curves (using an integrated γ-function ([23])).

Consider `Cc1ccccc1C(=CCCN1CCCC(C(=O)O)C1)c1ccccc1[18F]` (centres unmarked) [^18F-GATT-44], for which the Parent compound stood at 88 ± 4% (30 min) and 83 ± 6% (90 min).
